This is an account of results in ChEMBL document CHEMBL5465560, “Selectivity Literature for EUbOPEN Chemogenomic Library” (2024).

Experiment [1] has as its target eIF-2-alpha kinase GCN2 (Homo sapiens) (UniProt Q9P2K8). The experiment can be described thus: Selectivity interaction (ActivX KiNativ screen (ex vivo kinase selectivity in human PBMCs)) EUB0001619a EIF2AK4. The settings on record: PBMC, at 1 µM. Format: cell-based.
The target of experiment [2] is T1, Inhibitor of nuclear factor kappa-B kinase subunit alpha (Homo sapiens) (UniProt O15111).
T1 sequence (whole entry): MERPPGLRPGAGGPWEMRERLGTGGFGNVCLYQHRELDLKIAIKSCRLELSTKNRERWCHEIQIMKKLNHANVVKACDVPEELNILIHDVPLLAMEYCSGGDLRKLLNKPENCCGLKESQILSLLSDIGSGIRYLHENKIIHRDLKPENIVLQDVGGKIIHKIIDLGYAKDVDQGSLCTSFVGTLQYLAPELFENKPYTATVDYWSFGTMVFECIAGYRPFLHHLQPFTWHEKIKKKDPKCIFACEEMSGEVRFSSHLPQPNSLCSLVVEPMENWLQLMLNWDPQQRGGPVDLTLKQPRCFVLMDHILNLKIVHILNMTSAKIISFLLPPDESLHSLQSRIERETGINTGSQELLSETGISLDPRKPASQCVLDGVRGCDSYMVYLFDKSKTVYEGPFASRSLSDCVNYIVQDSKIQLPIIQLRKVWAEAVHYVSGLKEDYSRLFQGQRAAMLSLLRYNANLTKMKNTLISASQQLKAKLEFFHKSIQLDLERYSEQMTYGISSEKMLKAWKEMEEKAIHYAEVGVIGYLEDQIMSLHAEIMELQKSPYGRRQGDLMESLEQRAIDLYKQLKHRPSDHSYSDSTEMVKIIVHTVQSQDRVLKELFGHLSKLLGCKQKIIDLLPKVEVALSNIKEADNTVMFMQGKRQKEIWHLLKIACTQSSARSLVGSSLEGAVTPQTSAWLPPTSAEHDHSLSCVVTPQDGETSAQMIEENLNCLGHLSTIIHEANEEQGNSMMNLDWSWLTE
The experiment can be described thus: Selectivity interaction (KinomeScan (DiscoverX)) EUB0000666a CHUK. The settings on record: at 10 µM.

For a further experiment, the target named is SRSF protein kinase 1 (Homo sapiens, UniProt Q96SB4). Nature of the experiment: Selectivity interaction (KinomeScan (DiscoverX)) EUB0000666a SRPK1. The settings on record: at 10 µM.
The target in experiment [3] is Cyclin-dependent kinase 5 (Homo sapiens, UniProt Q00535). Nature of the experiment: Selectivity interaction (KinomeScan (DiscoverX)) EUB0000607a CDK5. To be noted: at 10 µM.
Experiment [4] addresses Vascular endothelial growth factor receptor 1 (Homo sapiens) (UniProt P17948). Nature of the experiment: Selectivity interaction (Kinase screening (Nanosyn)) EUB0000604a FLT1.
The target in experiment [5] is Histone-lysine N-methyltransferase, H3 lysine-36 specific (Homo sapiens) (UniProt Q96L73). The settings on record: at 1 µM.
The target in experiment [6] is Histone-lysine N-methyltransferase 2C (Homo sapiens) (UniProt Q8NEZ4). The settings on record: at 1 µM.
The target in experiment [7] is NT-3 growth factor receptor (Homo sapiens, UniProt Q16288). The experiment can be described thus: Selectivity interaction (KinomeScan (DiscoverX)) EUB0000045b NTRK3.
Sequence of NT-3 growth factor receptor (Q16288 32-839 limits assumed): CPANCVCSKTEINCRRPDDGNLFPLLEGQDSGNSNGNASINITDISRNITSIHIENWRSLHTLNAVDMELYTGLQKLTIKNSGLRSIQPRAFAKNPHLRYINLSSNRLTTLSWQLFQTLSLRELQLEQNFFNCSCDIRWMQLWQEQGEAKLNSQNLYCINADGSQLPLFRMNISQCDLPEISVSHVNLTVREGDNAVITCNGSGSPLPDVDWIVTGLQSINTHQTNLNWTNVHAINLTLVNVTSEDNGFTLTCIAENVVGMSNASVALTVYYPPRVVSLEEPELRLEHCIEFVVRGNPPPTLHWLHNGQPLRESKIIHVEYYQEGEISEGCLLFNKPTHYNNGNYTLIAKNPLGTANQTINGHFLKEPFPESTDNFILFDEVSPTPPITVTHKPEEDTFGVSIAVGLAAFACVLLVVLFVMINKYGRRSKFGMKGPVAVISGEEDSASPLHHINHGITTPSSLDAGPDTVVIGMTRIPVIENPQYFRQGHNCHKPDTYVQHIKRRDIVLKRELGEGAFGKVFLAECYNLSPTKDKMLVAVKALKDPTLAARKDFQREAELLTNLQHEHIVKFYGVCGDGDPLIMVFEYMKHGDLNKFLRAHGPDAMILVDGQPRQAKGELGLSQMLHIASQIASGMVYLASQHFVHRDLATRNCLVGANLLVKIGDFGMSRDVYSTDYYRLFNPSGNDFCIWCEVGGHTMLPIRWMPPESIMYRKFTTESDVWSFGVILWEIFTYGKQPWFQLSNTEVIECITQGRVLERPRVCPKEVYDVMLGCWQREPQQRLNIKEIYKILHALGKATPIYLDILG
In experiment [8] the target is T2, Homeodomain-interacting protein kinase 4 (Homo sapiens) (UniProt Q8NE63).
T2 sequence (whole entry): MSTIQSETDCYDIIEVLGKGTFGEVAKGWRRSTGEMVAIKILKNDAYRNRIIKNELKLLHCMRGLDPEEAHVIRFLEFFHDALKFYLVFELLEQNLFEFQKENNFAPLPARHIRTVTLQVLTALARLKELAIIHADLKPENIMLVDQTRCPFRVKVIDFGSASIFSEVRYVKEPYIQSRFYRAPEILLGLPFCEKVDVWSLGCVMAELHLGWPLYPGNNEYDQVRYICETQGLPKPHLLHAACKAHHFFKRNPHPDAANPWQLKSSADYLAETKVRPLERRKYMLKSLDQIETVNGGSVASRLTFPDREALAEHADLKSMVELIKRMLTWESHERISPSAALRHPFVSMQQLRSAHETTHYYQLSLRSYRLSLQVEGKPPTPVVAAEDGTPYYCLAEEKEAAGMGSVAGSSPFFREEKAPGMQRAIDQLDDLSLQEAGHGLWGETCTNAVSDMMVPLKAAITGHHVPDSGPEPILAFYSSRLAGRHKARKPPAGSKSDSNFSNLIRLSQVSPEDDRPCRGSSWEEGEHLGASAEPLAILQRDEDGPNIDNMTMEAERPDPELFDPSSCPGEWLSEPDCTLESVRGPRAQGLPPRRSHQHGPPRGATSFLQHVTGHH
Nature of the experiment: Selectivity interaction (KinomeScan (DiscoverX)) EUB0000045b HIPK4.

Experiment [9] has as its target Fibroblast growth factor receptor 3 (Homo sapiens, UniProt P22607). Nature of the experiment: Selectivity interaction (Upstate Kinase Profiler service (Millipore)) EUB0000056c FGFR3. The settings on record: at 1 µM.
Experiment [10] concerns the target Casein kinase II subunit alpha (Homo sapiens, UniProt P68400). Nature of the experiment: Selectivity interaction (Upstate Kinase Profiler service (Millipore)) EUB0000056c CSNK2A1. The settings on record: at 1 µM.
For experiment [11], the system named is Mast/stem cell growth factor receptor Kit (Homo sapiens), P10721 [L576P]. The experiment can be described thus: (§1) Selectivity interaction (KinomeScan (DiscoverX)) EUB0000618a KIT. To be noted: at 10 µM.
Experiment [12] has as its system Mast/stem cell growth factor receptor Kit (Homo sapiens), P10721 [D816V]. The description is as §1. The settings on record: at 10 µM.
Experiment [13] concerns the target Mast/stem cell growth factor receptor Kit (Homo sapiens, UniProt P10721). The experiment is described as §1. The settings on record: at 10 µM.
For experiment [14], the system named is Mast/stem cell growth factor receptor Kit (Homo sapiens), P10721 [V559D,V654A]. The experiment is described as §1. The settings on record: at 10 µM.
Sequence of Mast/stem cell growth factor receptor Kit (Homo sapiens), P10721 [V559D,V654A] (P10721 whole entry V559D/V654A): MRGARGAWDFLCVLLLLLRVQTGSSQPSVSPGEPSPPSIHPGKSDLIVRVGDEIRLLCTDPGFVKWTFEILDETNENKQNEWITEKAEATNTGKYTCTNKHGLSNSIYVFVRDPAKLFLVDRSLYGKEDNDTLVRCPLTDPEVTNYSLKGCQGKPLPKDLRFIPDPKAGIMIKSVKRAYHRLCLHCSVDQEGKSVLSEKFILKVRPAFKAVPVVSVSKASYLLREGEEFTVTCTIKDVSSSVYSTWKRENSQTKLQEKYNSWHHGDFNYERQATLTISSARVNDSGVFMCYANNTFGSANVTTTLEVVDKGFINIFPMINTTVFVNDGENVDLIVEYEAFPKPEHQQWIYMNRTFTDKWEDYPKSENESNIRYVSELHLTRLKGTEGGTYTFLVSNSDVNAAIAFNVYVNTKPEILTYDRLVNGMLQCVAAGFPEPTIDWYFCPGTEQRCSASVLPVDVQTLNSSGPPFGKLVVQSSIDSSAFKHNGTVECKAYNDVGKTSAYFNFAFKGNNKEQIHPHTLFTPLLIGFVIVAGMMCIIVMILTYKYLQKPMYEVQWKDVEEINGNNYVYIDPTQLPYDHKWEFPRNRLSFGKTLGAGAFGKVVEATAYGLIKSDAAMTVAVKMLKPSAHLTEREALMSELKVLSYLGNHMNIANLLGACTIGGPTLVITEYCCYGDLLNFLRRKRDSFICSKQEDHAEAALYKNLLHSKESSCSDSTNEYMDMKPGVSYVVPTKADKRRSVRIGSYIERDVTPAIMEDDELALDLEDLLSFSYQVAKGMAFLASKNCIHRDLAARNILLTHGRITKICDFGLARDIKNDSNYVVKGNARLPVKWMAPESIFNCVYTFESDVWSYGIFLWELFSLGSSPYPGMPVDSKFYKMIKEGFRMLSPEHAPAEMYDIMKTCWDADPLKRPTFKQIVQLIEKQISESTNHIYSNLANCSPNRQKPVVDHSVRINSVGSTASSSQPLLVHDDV
Experiment [15] deals with Mast/stem cell growth factor receptor Kit (Homo sapiens), P10721 [A829P]. The experiment is described as §1. To be noted: at 10 µM.
Experiment [16] deals with T3, N-lysine methyltransferase KMT5A (Homo sapiens) (UniProt Q9NQR1).
T3 sequence (whole entry): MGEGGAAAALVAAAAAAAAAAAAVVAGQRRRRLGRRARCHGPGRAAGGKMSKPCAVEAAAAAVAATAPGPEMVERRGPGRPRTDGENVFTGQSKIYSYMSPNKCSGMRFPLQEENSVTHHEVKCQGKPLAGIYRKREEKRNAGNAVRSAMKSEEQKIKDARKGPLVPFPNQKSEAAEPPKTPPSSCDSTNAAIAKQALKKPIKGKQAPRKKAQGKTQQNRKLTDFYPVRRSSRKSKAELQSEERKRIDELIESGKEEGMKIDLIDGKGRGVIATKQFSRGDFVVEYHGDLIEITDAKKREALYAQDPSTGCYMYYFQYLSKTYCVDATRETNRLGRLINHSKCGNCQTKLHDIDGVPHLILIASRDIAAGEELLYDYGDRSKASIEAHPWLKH
The experiment can be described thus: Selectivity interaction (Methyltransferase screen (radiometric assays, panel of 8 PRMTs, 21 protein lysine methyltransferases, 3 DNA methyltransferases, and one RNA methyltransferase)) EUB0000271b SETD8.

The target in experiment [17] is Serine/threonine-protein kinase 16 (Homo sapiens, UniProt O75716). Nature of the experiment: Selectivity interaction (KinomeScan (DiscoverX)) EUB0001079a STK16. The settings on record: at 1 µM.

Sequence of Fibroblast growth factor receptor 3 (P22607 23-806 limits assumed): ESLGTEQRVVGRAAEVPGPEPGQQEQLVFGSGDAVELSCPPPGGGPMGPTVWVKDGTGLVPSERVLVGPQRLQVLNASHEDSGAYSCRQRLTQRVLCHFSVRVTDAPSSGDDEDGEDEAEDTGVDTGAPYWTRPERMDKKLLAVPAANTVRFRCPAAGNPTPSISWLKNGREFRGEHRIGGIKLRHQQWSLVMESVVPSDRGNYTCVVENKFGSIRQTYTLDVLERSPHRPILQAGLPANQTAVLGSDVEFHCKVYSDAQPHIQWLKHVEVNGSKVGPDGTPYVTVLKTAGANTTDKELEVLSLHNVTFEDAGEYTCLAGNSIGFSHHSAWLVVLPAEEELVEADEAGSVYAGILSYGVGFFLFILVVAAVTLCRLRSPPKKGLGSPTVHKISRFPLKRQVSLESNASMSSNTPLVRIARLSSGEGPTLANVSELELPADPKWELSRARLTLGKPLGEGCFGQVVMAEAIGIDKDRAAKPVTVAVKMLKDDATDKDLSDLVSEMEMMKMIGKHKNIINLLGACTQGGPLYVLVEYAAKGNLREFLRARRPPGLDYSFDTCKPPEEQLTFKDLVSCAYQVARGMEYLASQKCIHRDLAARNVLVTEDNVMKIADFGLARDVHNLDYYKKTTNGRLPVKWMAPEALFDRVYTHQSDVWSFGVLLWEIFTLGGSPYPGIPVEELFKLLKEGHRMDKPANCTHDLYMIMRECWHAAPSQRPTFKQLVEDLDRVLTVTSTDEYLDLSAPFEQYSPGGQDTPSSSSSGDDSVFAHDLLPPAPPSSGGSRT
Sequence of Vascular endothelial growth factor receptor 1 (Homo sapiens) (P17948 whole entry): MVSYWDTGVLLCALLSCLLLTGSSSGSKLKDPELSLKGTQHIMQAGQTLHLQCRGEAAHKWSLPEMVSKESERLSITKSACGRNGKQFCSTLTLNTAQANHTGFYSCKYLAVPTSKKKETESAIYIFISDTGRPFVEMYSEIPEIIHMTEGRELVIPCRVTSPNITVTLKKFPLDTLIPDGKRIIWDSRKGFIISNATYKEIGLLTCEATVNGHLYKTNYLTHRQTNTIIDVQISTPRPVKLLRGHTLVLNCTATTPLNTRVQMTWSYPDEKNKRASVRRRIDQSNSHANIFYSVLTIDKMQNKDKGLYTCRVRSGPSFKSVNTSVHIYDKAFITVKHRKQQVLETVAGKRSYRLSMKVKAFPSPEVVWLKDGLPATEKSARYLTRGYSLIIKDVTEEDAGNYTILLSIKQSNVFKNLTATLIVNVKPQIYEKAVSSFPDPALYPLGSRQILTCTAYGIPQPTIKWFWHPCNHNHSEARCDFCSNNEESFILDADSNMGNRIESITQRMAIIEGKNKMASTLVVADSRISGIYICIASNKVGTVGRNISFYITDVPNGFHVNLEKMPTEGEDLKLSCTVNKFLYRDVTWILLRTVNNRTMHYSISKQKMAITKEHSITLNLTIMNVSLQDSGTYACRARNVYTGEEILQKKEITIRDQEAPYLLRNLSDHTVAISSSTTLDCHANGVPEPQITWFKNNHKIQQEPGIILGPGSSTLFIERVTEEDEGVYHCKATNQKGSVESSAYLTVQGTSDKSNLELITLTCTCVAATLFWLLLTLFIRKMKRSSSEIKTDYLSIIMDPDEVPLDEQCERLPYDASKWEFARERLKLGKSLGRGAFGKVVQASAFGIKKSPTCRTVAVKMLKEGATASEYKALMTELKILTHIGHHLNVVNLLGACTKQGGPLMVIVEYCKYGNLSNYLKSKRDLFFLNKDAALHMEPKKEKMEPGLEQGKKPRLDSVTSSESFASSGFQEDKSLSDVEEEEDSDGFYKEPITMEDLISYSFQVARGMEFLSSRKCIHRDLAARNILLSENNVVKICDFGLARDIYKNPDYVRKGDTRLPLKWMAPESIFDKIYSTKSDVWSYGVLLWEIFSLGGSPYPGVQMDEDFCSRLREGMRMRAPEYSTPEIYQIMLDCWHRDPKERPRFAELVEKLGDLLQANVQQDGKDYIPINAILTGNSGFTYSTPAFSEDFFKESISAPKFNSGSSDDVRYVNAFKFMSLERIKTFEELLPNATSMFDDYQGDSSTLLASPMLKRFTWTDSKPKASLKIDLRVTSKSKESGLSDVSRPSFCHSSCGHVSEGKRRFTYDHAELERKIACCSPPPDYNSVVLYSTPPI
Sequence of Mast/stem cell growth factor receptor Kit (Homo sapiens), P10721 [D816V] (P10721 whole entry D816V): as the sequence (P10721 whole entry V559D/V654A) above, with D559V, A654V, D816V counted along it

`N#Cc1cccc(-c2c[nH]c3ncnc(N4CCOCC4)c23)c1` came in with a % of inhibition in [1] of 22%.
As for `O=C(NOC[C@H](O)CO)c1ccc(F)c(F)c1Nc1ccc(I)cc1F`, the % of control (in experiment [2]; on SRSF protein kinase 1) was 100% throughout.
In turn, `CNC(=O)Nc1ccc(-c2nc(N3CC4CCC(C3)O4)c3cnn(C4CCC5(CC4)OCCO5)c3n2)cc1` displayed a % of control in experiment [3] of 88%.
Consider `Cc1cnc(Nc2ccc(F)cc2Cl)nc1-c1c[nH]c(C(=O)N[C@H](CO)c2cccc(Cl)c2)c1`, for which, in [4], the % of inhibition worked out at 0%.
`CNCCN1CCC(c2cc(CN(C)C(=O)c3cccc(Oc4ccccc4)c3)ccn2)CC1`: the % activity in [5] and in experiment [6] was above 90% throughout.
Turning to `C=CC(=O)Nc1cc(-n2c(=O)ccc3cnc4ccc(-c5ccc(NS(C)(=O)=O)cc5)cc4c32)ccc1C`, the % of control in experiment [7] (at 1 µM) stood at 100%; in [7] (at 10 µM) it was 100%; in experiment [8] (at 1 µM), 100%; in experiment [8] (at 10 µM), 71%.
On to `Cc1ccc(-c2ccc3c(ccc4sc5c(c43)NC[C@@H](C)NC5=O)n2)cn1`, for which the % of inhibition amounted to 16% in [9] and 15% in experiment [10].
Take `O[C@H]1CC[C@H](Nc2ncc3nc(Nc4c(F)cc(F)cc4F)n([C@H]4CCOC4)c3n2)CC1`: the % of control is 95% in experiment [11]; 84% in [12]; 96% in experiment [13]; 68% in experiment [14]; 77% in experiment [15].
As to `Cc1cc(C)cc([C@@H]2c3cc(C)ccc3NC(=O)CN2C(=O)c2ccc(Br)s2)c1`, the results for the % of activity in experiment [16] (at 1 µM) and in [16] (at 10 µM) were 101% and 92%, respectively.
`Nc1cnc(N2CCc3cc(S(=O)(=O)Nc4c(F)cc(Cl)cc4F)cc(N4CCCC4=O)c32)nc1` [TP-020n] showed a % of control in [17] of 100%.
